Data as given in BindingDB's records for doi:10.1038/nchembio.168 (University of New Mexico Health Sciences Center, 2009).

Molecular target: Estrogen receptor beta (Mus musculus, UniProt O08537)
Experiment: Binding affinity to ERbeta receptor in mouse COS7 cells by competitive binding assay

Estrogen receptor beta, sequence (O08537 whole entry): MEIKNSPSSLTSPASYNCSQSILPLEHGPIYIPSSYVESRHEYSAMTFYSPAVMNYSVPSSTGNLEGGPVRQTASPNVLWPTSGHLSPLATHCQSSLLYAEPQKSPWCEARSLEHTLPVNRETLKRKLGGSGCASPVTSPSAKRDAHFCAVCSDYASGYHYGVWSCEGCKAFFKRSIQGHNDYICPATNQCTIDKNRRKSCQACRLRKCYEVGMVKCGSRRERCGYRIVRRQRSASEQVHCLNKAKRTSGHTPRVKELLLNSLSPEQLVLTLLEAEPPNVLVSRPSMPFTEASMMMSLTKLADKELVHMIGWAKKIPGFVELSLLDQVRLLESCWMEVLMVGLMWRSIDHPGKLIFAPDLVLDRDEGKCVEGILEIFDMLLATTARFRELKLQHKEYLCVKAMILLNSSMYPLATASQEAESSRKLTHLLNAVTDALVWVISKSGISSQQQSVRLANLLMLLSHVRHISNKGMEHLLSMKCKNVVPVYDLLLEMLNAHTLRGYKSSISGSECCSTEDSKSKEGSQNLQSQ

Brc1cc2c(cc1[C@@H]1Nc3ccccc3[C@@H]3C=CC[C@@H]31)OCO2
Ki: > 10 µM
